Experiments:
Assay in all cases: KinaseProfiler kinase panel
Assay type in all cases: biochemical
CLK2(h) = CLK2(h) (Homo sapiens (Human), UniProt P49760)
cKit(D816H)(h) = cKit(D816H)(h) (Homo sapiens (Human), UniProt P10721, D816H)
CDK2/cyclinA(h) = CDK2/cyclinA(h) (Homo sapiens (Human), UniProt P24941)
Mnk2(h) = Mnk2(h) (Homo sapiens (Human), UniProt Q9HBH9)
Axl(h) = Axl(h) (Homo sapiens (Human), UniProt P30530)
PKBγ(h) = PKBγ(h) (Homo sapiens (Human), UniProt Q9Y243)
MSK1(h) = MSK1(h) (Homo sapiens (Human), UniProt O75582)
cKit(D816V)(h) = cKit(D816V)(h) (Homo sapiens (Human), UniProt P10721, D816V)
GSK3β(h) = GSK3β(h) (Homo sapiens (Human), UniProt P49841)
AMPKα2(h) = AMPKα2(h) (Homo sapiens (Human), UniProt P54646)
Fgr(h) = Fgr(h) (Homo sapiens (Human), UniProt P09769)
Fms(h) = Fms(h) (Homo sapiens (Human), UniProt P07333)
CK2α2(h) = CK2α2(h) (Homo sapiens (Human), UniProt P19784)
NEK11(h) = NEK11(h) (Homo sapiens (Human), UniProt Q8NG66)
IKKβ(h) = IKKβ(h) (Homo sapiens (Human), UniProt O14920)
CHK2(I157T)(h) = CHK2(I157T)(h) (Homo sapiens (Human), UniProt O96017, I157T)
Met(h) = Met(h) (Homo sapiens (Human), UniProt P08581)
AMPKα1(h) = AMPKα1(h) (Homo sapiens (Human), UniProt Q13131)
CK1γ1(h) = CK1γ1(h) (Homo sapiens (Human), UniProt Q9HCP0)
JNK3(h) = JNK3(h) (Homo sapiens (Human), UniProt P53779)
MINK(h) = MINK(h) (Homo sapiens (Human), UniProt Q8N4C8)
ErbB4(h) = ErbB4(h) (Homo sapiens (Human), UniProt Q15303)
Rsk4(h) = Rsk4(h) (Homo sapiens (Human), UniProt Q9UK32)
Abl(m) = Abl(m) (Mus musculus (Mouse), UniProt P00520)
SGK(h) = SGK(h) (Homo sapiens (Human), UniProt O00141)
FGFR2(h) = FGFR2(h) (Homo sapiens (Human), UniProt P21802)
PKCη(h) = PKCη(h) (Homo sapiens (Human), UniProt P24723)
GRK7(h) = GRK7(h) (Homo sapiens (Human), UniProt Q8WTQ7)
PKCγ(h) = PKCγ(h) (Homo sapiens (Human), UniProt P05129)
PAK2(h) = PAK2(h) (Homo sapiens (Human), UniProt Q13177)
Syk(h) = Syk(h) (Homo sapiens (Human), UniProt P43405)
TSSK2(h) = TSSK2(h) (Homo sapiens (Human), UniProt Q96PF2)
Arg(m) = Arg(m) (Mus musculus (Mouse), UniProt Q4JIM5)
DMPK(h) = DMPK(h) (Homo sapiens (Human), UniProt Q09013)
EphA5(h) = EphA5(h) (Homo sapiens (Human), UniProt P54756)
SRPK2(h) = SRPK2(h) (Homo sapiens (Human), UniProt P78362)
WNK2(h) = WNK2(h) (Homo sapiens (Human), UniProt Q9Y3S1)
mTOR/FKBP12(h) = mTOR/FKBP12(h) (Homo sapiens (Human), UniProt P42345)
ALK(h) = ALK(h) (Homo sapiens (Human), UniProt Q9UM73)
CHK1(h) = CHK1(h) (Homo sapiens (Human), UniProt O14757)

Sequence of cKit(D816V)(h) (P10721 26-976 D816V): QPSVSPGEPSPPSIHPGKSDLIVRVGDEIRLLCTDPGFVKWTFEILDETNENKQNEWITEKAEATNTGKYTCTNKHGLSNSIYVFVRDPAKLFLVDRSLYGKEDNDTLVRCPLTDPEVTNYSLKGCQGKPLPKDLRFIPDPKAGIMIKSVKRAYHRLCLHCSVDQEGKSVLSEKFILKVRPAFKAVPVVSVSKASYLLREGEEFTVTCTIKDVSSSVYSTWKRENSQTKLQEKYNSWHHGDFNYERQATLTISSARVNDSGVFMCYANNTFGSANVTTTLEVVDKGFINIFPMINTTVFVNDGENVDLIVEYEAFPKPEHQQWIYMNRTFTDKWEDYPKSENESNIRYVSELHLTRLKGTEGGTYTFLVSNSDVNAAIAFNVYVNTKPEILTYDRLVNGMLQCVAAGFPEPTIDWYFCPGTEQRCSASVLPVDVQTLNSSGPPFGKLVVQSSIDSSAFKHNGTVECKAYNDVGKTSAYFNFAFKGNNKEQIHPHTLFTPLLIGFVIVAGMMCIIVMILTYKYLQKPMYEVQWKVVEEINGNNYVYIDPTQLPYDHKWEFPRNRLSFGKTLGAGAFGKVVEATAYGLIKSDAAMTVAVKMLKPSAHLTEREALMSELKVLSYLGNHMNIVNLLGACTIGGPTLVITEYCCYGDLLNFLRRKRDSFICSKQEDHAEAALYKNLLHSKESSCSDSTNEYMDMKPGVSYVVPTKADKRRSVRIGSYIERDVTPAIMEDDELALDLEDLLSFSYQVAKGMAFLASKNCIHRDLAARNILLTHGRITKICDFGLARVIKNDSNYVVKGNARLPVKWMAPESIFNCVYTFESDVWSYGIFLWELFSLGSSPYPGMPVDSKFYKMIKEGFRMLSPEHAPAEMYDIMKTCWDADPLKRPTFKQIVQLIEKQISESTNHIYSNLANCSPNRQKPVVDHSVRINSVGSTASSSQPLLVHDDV
Sequence of NEK11(h) (Q8NG66 whole entry): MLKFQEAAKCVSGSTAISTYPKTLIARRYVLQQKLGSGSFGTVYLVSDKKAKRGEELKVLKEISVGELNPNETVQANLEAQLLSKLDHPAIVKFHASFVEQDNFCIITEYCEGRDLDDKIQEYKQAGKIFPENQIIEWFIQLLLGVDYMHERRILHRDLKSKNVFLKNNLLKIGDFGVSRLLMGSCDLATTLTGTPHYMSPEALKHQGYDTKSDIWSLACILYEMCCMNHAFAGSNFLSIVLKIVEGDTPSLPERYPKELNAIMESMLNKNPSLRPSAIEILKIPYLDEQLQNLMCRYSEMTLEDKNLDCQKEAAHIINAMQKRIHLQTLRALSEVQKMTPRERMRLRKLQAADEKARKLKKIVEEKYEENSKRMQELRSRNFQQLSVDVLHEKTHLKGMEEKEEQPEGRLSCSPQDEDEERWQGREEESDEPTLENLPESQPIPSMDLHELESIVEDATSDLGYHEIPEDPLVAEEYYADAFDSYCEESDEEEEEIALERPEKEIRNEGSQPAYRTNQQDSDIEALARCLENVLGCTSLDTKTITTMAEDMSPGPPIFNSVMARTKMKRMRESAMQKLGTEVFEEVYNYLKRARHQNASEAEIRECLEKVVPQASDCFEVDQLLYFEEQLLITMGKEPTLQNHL
Sequence of Mnk2(h) (Q9HBH9 whole entry): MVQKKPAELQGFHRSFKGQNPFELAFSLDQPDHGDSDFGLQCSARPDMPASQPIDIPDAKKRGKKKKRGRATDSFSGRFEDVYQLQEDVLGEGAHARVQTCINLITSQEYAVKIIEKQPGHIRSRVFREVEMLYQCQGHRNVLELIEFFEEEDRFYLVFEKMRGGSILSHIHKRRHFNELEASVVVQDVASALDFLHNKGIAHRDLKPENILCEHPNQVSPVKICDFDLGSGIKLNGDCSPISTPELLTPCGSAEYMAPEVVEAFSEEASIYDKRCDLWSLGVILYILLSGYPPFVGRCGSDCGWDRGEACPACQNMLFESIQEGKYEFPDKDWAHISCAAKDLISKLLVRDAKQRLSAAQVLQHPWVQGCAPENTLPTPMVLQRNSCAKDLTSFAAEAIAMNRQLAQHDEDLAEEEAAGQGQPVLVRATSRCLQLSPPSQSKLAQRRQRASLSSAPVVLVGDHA
Sequence of MSK1(h) (O75582 whole entry): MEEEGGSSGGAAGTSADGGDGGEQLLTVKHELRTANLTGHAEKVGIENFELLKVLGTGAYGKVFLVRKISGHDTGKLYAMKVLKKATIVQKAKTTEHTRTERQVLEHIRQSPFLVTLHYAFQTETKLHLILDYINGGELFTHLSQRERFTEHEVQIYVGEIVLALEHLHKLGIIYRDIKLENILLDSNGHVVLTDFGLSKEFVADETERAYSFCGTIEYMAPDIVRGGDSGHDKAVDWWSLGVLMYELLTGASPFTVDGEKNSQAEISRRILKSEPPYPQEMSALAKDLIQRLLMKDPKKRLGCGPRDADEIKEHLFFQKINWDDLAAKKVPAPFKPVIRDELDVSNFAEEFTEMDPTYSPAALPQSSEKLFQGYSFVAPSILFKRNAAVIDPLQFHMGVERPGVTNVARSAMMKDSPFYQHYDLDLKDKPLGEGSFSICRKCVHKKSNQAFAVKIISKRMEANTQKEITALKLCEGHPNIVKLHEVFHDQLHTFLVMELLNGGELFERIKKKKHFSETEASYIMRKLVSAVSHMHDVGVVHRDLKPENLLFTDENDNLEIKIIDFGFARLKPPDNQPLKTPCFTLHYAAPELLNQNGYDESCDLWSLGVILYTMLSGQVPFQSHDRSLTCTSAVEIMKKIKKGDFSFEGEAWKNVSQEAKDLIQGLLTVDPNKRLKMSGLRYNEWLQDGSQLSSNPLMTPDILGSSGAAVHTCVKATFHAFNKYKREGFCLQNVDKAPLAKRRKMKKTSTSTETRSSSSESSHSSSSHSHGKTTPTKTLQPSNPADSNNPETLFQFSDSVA
Sequence of Met(h) (P08581 25-1390): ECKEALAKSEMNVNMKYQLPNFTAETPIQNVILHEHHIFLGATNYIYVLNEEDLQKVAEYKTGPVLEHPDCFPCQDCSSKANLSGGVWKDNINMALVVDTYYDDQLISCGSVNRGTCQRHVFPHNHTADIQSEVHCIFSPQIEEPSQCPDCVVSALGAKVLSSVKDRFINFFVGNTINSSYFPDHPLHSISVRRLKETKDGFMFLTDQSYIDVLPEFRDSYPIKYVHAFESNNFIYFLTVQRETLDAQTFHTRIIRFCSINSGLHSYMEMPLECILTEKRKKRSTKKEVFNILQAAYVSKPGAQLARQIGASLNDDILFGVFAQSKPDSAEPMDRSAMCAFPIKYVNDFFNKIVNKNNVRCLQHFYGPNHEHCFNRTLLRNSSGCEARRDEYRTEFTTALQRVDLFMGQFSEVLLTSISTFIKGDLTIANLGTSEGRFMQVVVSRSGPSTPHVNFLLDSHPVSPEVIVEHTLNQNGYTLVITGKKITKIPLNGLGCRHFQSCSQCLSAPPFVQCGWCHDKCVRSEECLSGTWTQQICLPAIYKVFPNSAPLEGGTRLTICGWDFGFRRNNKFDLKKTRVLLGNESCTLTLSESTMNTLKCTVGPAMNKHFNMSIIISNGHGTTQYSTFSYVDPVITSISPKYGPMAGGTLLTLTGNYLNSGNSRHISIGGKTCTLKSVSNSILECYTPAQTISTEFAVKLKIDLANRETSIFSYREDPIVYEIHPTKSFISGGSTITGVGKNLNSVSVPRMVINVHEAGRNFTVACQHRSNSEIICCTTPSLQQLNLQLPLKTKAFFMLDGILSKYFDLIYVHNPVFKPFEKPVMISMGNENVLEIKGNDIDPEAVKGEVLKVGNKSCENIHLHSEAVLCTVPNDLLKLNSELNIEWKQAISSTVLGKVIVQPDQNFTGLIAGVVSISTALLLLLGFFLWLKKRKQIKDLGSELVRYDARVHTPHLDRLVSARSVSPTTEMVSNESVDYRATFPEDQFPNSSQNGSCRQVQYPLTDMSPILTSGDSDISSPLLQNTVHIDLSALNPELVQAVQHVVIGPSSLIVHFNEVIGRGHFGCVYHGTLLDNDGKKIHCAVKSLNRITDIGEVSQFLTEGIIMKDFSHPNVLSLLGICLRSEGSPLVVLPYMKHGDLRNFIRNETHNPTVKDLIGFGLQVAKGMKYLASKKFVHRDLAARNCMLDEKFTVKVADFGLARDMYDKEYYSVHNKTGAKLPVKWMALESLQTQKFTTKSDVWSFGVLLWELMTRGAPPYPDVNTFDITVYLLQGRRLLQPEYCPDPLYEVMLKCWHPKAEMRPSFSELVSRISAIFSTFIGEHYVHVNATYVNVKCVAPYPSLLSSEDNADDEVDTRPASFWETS
Sequence of cKit(D816H)(h) (P10721 26-976 D816H): as the sequence (P10721 26-976 D816V) above, with V791H counted along it

remaining activity at 1 µM (CLK2(h)): 2%
remaining activity at 1 µM (cKit(D816H)(h)): 6%
remaining activity at 1 µM (CDK2/cyclinA(h)): 7%
remaining activity at 1 µM (Mnk2(h)): 17%
remaining activity at 1 µM (Axl(h)): 36%
remaining activity at 1 µM (PKBγ(h)): 39%
remaining activity at 1 µM (MSK1(h)): 54%
remaining activity at 1 µM (cKit(D816V)(h)): 61%
remaining activity at 1 µM (GSK3β(h)): 66%
remaining activity at 1 µM (AMPKα2(h)): 67%
remaining activity at 1 µM (Fgr(h)): 67%
remaining activity at 1 µM (Fms(h)): 72%
remaining activity at 1 µM (CK2α2(h)): 73%
remaining activity at 1 µM (NEK11(h)): 73%
remaining activity at 1 µM (IKKβ(h)): 78%
remaining activity at 1 µM (CHK2(I157T)(h)): 80%
remaining activity at 1 µM (Met(h)): 81%
remaining activity at 1 µM (AMPKα1(h)): 82%
remaining activity at 1 µM (CK1γ1(h)): 83%
remaining activity at 1 µM (JNK3(h)): 87%
remaining activity at 1 µM (MINK(h)): 87%
remaining activity at 1 µM (ErbB4(h)): 89%
remaining activity at 1 µM (Rsk4(h)): 89%
remaining activity at 1 µM (Abl(m)): 90%
remaining activity at 1 µM (SGK(h)): 90%
remaining activity at 1 µM (FGFR2(h)): 91%
remaining activity at 1 µM (PKCη(h)): 92%
remaining activity at 1 µM (GRK7(h)): 93%
remaining activity at 1 µM (PKCγ(h)): 93%
remaining activity at 1 µM (PAK2(h)): 95%
remaining activity at 1 µM (Syk(h)): 95%
remaining activity at 1 µM (TSSK2(h)): 95%
remaining activity at 1 µM (Arg(m)): 96%
remaining activity at 1 µM (DMPK(h)): 97%
remaining activity at 1 µM (EphA5(h)): 99%
remaining activity at 1 µM (SRPK2(h)): 102%
remaining activity at 1 µM (WNK2(h)): 102%
remaining activity at 1 µM (mTOR/FKBP12(h)): 103%
remaining activity at 1 µM (ALK(h)): 106%
remaining activity at 1 µM (CHK1(h)): 113%
Structure (SMILES): CCn1c(N2CCNCC2)nc2c(Br)c(Br)c(Br)c(Br)c21 [Compound 416, 4,5,6,7-tetrabromo-1-ethyl-2-(piperazin-1-yl)-1H-benzo[d]imidazole]

— patent publication US8604217B2, “Compound, a process for its preparation, a pharmaceutical composition, use of a compound, a method for modulating or regulating serine/threonine kinases and a serine/threonine kinases modulating agent” (Selvita S.A., priority 2009, dated 2013)
